In patent US6939882B1 (priority 1999, dated 2005):

Assays:
[1] = system: Plasmopara viticola; details: in vivo; further: key: 1 is little or no control; 2 is moderate control; 3 is good to total control
[2] = system: Leptosphaeria nodorum; details: in vivo; further: key: 1 is little or no control; 2 is moderate control; 3 is good to total control
[3] = system: Pyricularia oryzae; type: in vivo; details: concentration of 500 ppm (w/v) or less, spray or stem base drench
[4] = system: Phytophthora infestans; type: in vivo; details: concentration of 500 ppm (w/v) or less, spray or stem base drench

Row | SMILES | score of disease control (degree of infection visually estimated) [1] | score of disease control (degree of infection visually estimated) [3] | other results
1 | O=C(NOc1ncc(C(F)(F)F)cc1Cl)c1ccccc1Cl [Compound 1013] | 2 | – | –
2 | N#CC(=NOc1ncc(C(F)(F)F)cc1Cl)c1ccccc1 [Compound 926] | – | – | score of disease control (degree of infection visually estimated) [2]: 2
3 | N#CC(=NOc1ncc(C(F)(F)F)cc1Cl)c1c(Cl)cccc1Cl (single isomer, unassigned) [Compound 937] | – | 2 | –
4 | CC1CCc2ccccc2C1=NOc1ncc(C(F)(F)F)cc1Cl (stereo not drawn) [Compound 1101, 2-Methyl-1,2,3,4-tetrahydro-1-naphthalenone O-1-[3-chloror-5-(trifluoromethyl)-2-pyridyl]oxime] | – | – | score of disease control (degree of infection visually estimated) [4]: 2
5 | N#CC(=NOc1ncc(C(F)(F)F)cc1Cl)c1ccccc1C#N [Compound 939] | – | 2 | –
6 | CC(=NOc1ncc(C(F)(F)F)cc1Cl)c1ccc(C)cc1C [Compound 915] | 2 | – | –
7 | CC(C)(C)C(=NOc1ncc(C(F)(F)F)cc1Cl)c1ccccn1 [Compound 912] | – | – | score of disease control (degree of infection visually estimated) [4]: 2
8 | O=[N+]([O-])c1cccc(C=NOc2ncc(C(F)(F)F)cc2Cl)c1 [Compound 923] | – | 2 | score of disease control (degree of infection visually estimated) [2]: 2
9 | CC(=NOc1ncc(C(F)(F)F)cc1Cl)c1cccs1 [Compound 913] | – | 2 | –
10 | CCC(=NOc1ncc(C(F)(F)F)cc1Cl)c1ccccc1 [Compound 922] | – | 2 | –
11 | COc1ccc(OC)c(CNCc2ncc(C(F)(F)F)cc2Cl)c1 [Compound 49] | – | – | score of disease control (degree of infection visually estimated) [4]: 2
12 | CCOC(=O)C(c1ncc(C(F)(F)F)cc1Cl)N(Cc1ccccc1Cl)C(C)=O (stereo not drawn) [Compound 7] | 2 | 2 | –
13 | O=C(C=Cc1ncc(C(F)(F)F)cc1Cl)c1ccccc1[N+](=O)[O-] [Compound 601, 3-[3-Chloro-5-(trifluoromethyl)-2-pyridyl]-1-(2-nitrophenyl)-2-propen-1-one] | 2 | – | score of disease control (degree of infection visually estimated) [4]: 2
14 | O=C(NNc1ncc(C(F)(F)F)cc1Cl)c1c(F)cccc1Cl [Compound 126] | 2 | 2 | score of disease control (degree of infection visually estimated) [2]: 2; score of disease control (degree of infection visually estimated) [4]: 2
15 | CC(NCc1ncc(C(F)(F)F)cc1Cl)c1ccc(F)c(F)c1 (stereo not drawn) [Compound 23, N-{[3-Chloro-5-(trifluoromethyl)-2-pyridyl]methyl}-N-[1-(3,4-difluorophenyl)-ethyl]amine] | – | – | score of disease control (degree of infection visually estimated) [2]: 2
16 | COc1ccc2c(c1)C(=NOc1ncc(C(F)(F)F)cc1Cl)CCC2 [Compound 1102] | – | – | score of disease control (degree of infection visually estimated) [4]: 2
17 | CC(NC(=O)c1ncc(C(F)(F)F)cc1Cl)c1ccc(Cl)cc1 (stereo not drawn) [Compound 207] | – | – | score of disease control (degree of infection visually estimated) [2]: 2
18 | Cc1nc(C)c(C(=O)NOc2ncc(C(F)(F)F)cc2Cl)s1 [Compound 1007] | – | – | score of disease control (degree of infection visually estimated) [2]: 2
19 | CC(NC(=O)c1ncc(C(F)(F)F)cc1Cl)c1ccc(Br)cc1 (stereo not drawn) [Compound 208] | – | – | score of disease control (degree of infection visually estimated) [2]: 2
20 | Cc1cnc(C(=O)NOc2ncc(C(F)(F)F)cc2Cl)cn1 [Compound 1001] | 2 | 2 | –
21 | FC(F)(F)c1cnc(ON=Cc2ccccc2Cl)c(Cl)c1 [Compound 929] | – | – | score of disease control (degree of infection visually estimated) [2]: 2

Row | SMILES | score of disease control (degree of infection visually estimated) [1] | score of disease control (degree of infection visually estimated) [3] | other results
22 | CC(=NOc1ncc(C(F)(F)F)cc1Cl)c1cccn1C [Compound 906] | – | 2 | score of disease control (degree of infection visually estimated) [2]: 2
23 | CCOC(=O)C(c1ncc(C(F)(F)F)cc1Cl)N(Cc1ccccc1Cl)C(=O)C(=O)OC (stereo not drawn) [Compound 9] | 2 | 2 | –
24 | FC(F)(F)c1cnc(ON=Cc2ccncc2)c(Cl)c1 [Compound 902] | – | – | score of disease control (degree of infection visually estimated) [4]: 2
25 | CC(=NOc1ncc(C(F)(F)F)cc1Cl)c1ccccc1 [Compound 927] | – | – | score of disease control (degree of infection visually estimated) [4]: 2
26 | Cc1ccc(CNC(=O)c2ncc(C(F)(F)F)cc2Cl)cc1 [Compound 215] | 2 | – | score of disease control (degree of infection visually estimated) [4]: 2
27 | FC(F)(F)c1cnc(ON=C(c2ccc(Cl)cc2)c2ccc(Cl)cc2)c(Cl)c1 [Compound 958] | 2 | – | –
28 | CN1C(=O)C(=NOc2ncc(C(F)(F)F)cc2Cl)c2ccccc21 [Compound 1109] | – | – | score of disease control (degree of infection visually estimated) [2]: 2
29 | CN(NC(=O)c1c(Cl)cccc1Cl)c1ncc(C(F)(F)F)cc1Cl [Compound 109] | 2 | – | –
30 | CC(=NOc1ncc(C(F)(F)F)cc1Cl)c1ccccc1Cl [Compound 901] | 2 | 2 | –
31 | CCOC(=O)C(c1ncc(C(F)(F)F)cc1Cl)N(Cc1ccc2c(c1)OCO2)C(=O)C(=O)OC (stereo not drawn) [Compound 12] | 2 | – | –
32 | N#CC(=NOc1ncc(C(F)(F)F)cc1Cl)c1c(Cl)cccc1Cl (single isomer, unassigned) [Compound 938] | – | 2 | –
33 | COc1ccccc1C=NOc1ncc(C(F)(F)F)cc1Cl [Compound 921] | 2 | – | –
34 | CC(=NOc1ncc(C(F)(F)F)cc1Cl)c1ccccc1C [Compound 907] | 2 | 2 | –
35 | CCC(=NOc1ncc(C(F)(F)F)cc1Cl)c1ccc(Cl)cc1Cl [Compound 953] | – | – | score of disease control (degree of infection visually estimated) [4]: 2
36 | O=[N+]([O-])c1ccc(CNCc2ncc(C(F)(F)F)cc2Cl)cc1 [Compound 51] | – | – | score of disease control (degree of infection visually estimated) [2]: 2
37 | COc1ccc(C=NOc2ncc(C(F)(F)F)cc2Cl)cc1 [Compound 914] | 2 | – | –
38 | CC(NCc1ncc(C(F)(F)F)cc1Cl)c1ccccc1Cl (stereo not drawn) [Compound 17] | – | 2 | –
39 | O=C(NNc1ncc(C(F)(F)F)cc1Cl)c1c(Cl)cccc1Cl [Compound 102] | 2 | – | score of disease control (degree of infection visually estimated) [4]: 2
40 | CC(NC(=O)c1ncc(C(F)(F)F)cc1Cl)c1c(F)cccc1F (stereo not drawn) [Compound 202] | – | – | score of disease control (degree of infection visually estimated) [4]: 2
41 | FC(F)(F)c1cnc(ON=Cc2cccc3ccccc23)c(Cl)c1 [Compound 933] | – | – | score of disease control (degree of infection visually estimated) [2]: 2
